Results taken from PubChem BioAssay (NCI).
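48-hour exposure; five concentrations; linearly interpolated endpoints. TGI marks complete inhibition of growth.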

Key:
Assay in all cases: NCI tumour cell line growth inhibition, 48 h
UACC-257 melanoma = tested on: UACC-257 melanoma
SK-OV-3 ovarian = tested on: SK-OV-3 ovarian
LOX IMVI melanoma = tested on: LOX IMVI melanoma
SR leukemia = tested on: SR leukemia
K-562 leukemia = tested on: K-562 leukemia
CCRF-CEM leukemia = tested on: CCRF-CEM leukemia
SF-539 CNS = tested on: SF-539 CNS
UO-31 renal = tested on: UO-31 renal
KM12 colon = tested on: KM12 colon
LXFL 529 NSCLC = tested on: LXFL 529 NSCLC
KM20L2 colon = tested on: KM20L2 colon
NCI-H226 lung = tested on: NCI-H226 lung
HCC-2998 colon = tested on: HCC-2998 colon
COLO 205 colon = tested on: COLO 205 colon
SK-MEL-2 melanoma = tested on: SK-MEL-2 melanoma
SNB-75 CNS = tested on: SNB-75 CNS
DMS 114 small cell lung = tested on: DMS 114 small cell lung
786-0 renal = tested on: 786-0 renal
HCT-116 colon = tested on: HCT-116 colon
SF-268 CNS = tested on: SF-268 CNS
HCT-15 colon = tested on: HCT-15 colon
M14 melanoma = tested on: M14 melanoma
SK-MEL-28 melanoma = tested on: SK-MEL-28 melanoma
ACHN renal = tested on: ACHN renal
SN12C renal = tested on: SN12C renal
U251 CNS = tested on: U251 CNS
SK-MEL-5 melanoma = tested on: SK-MEL-5 melanoma
UACC-62 melanoma = tested on: UACC-62 melanoma
HOP-62 NSCLC = tested on: HOP-62 NSCLC
NCI-H23 lung = tested on: NCI-H23 lung
OVCAR-3 ovarian = tested on: OVCAR-3 ovarian
RXF 393 renal = tested on: RXF 393 renal
SW-620 colon = tested on: SW-620 colon
EKVX NSCLC = tested on: EKVX NSCLC
XF 498 CNS = tested on: XF 498 CNS
HOP-92 NSCLC = tested on: HOP-92 NSCLC
NCI-H460 lung = tested on: NCI-H460 lung
CAKI-1 renal = tested on: CAKI-1 renal
IGROV1 ovarian = tested on: IGROV1 ovarian
OVCAR-8 ovarian = tested on: OVCAR-8 ovarian
DLD-1 colon = tested on: DLD-1 colon
HL-60(TB) leukemia = tested on: HL-60(TB) leukemia
MALME-3M melanoma = tested on: MALME-3M melanoma
DMS 273 small cell lung = tested on: DMS 273 small cell lung
SNB-19 CNS = tested on: SNB-19 CNS
TK-10 renal = tested on: TK-10 renal
MOLT-4 leukemia = tested on: MOLT-4 leukemia
RPMI-8226 leukemia = tested on: RPMI-8226 leukemia
A549 NSCLC = tested on: A549 NSCLC
M19-MEL melanoma = tested on: M19-MEL melanoma
OVCAR-5 ovarian = tested on: OVCAR-5 ovarian
NCI-H522 lung = tested on: NCI-H522 lung
HT29 colon = tested on: HT29 colon
SF-295 CNS = tested on: SF-295 CNS
OVCAR-4 ovarian = tested on: OVCAR-4 ovarian
A498 renal = tested on: A498 renal
SNB-78 CNS = tested on: SNB-78 CNS

Measured: TGI

O=c1nc2n(c3nsnc13)CCO2
not listed: SF-295 CNS | OVCAR-4 ovarian | A498 renal | SNB-78 CNS
> 100 µM: all other assays above

C[C@]12CC[C@H](O)CC1=CC[C@@H]1C2CC[C@]2(C)NC(=O)C(C#N)CC12 (some centres not stated)
not listed: LOX IMVI melanoma | SR leukemia | COLO 205 colon | SF-268 CNS | SN12C renal | HOP-92 NSCLC | SNB-19 CNS | NCI-H522 lung
> 100 µM: all other assays above
